Measurements as given in patent publication US11591326B2, “Inhibitors of protein arginine methyltransferase 5 (PRMT5), pharmaceutical products thereof, and methods thereof” (PHARMABLOCK SCIENCES (NANJING), INC., priority 2018, dated 2023).
pIC50: −log10 of the molar value.

How the values were obtained:
[1] = target: Human recombinant PRMT5 in complex with human recombinant MEP50 (Homo sapiens (Human), UniProt O14744); test: PRMT5/MEP50 AlphaLISA enzyme inhibitory assay; assay type: biochemical; settings: PRMT5/MEP50 25 nM, SAM 10 μM, Biotin-H4 peptide 30 nM
Chain of Human recombinant PRMT5 in complex with human recombinant MEP50 (O14744 whole entry): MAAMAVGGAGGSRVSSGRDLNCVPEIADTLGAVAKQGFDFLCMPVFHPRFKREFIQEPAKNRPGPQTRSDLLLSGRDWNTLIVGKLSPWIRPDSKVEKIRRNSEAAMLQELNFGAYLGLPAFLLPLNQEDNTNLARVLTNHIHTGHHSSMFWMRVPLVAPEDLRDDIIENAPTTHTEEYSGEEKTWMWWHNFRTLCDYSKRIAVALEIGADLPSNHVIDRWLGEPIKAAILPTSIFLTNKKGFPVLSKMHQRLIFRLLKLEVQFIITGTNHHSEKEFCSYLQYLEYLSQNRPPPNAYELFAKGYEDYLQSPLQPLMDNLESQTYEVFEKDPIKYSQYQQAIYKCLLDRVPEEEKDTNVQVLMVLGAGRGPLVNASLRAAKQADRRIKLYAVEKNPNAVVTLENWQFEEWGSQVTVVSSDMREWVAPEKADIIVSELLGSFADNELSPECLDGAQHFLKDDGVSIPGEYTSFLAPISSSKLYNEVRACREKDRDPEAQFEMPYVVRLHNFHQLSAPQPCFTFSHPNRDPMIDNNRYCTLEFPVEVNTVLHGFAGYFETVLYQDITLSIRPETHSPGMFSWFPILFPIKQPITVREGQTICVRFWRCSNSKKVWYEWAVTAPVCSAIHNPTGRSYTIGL
Chain of Human recombinant PRMT5 in complex with human recombinant MEP50 (Q9BQA1 whole entry partner): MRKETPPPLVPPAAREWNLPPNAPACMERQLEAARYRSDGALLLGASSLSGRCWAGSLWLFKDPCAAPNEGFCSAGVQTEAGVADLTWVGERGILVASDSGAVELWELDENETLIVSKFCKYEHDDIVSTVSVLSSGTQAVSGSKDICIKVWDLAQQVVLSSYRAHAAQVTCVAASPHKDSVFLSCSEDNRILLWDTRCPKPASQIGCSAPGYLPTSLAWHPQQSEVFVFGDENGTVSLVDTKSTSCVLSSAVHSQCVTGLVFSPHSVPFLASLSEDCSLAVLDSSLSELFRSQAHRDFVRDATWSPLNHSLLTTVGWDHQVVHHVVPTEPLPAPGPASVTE
Text: Human recombinant PRMT5 in complex with human recombinant MEP50, co-expressed in an insect cell/baculovirus expression system was purchased from Reaction Biology (Malvern, Pa.). […] Anti-H4R3-Me AlphaLISA acceptor beads and Streptavidin labeled AlphaLISA donor beads were obtained from PerkinElmer (Waltham, Mass.). S-adenosylmethionine (SAM), Tween20, dimethylsulfoxide (DMSO), and Tris buffer were obtained from Sigma at the highest level of purity available.
General Procedure for PRMT5/MEP50 AlphaLISA Enzyme Inhibitory Assays: Assays were performed in the buffer consisting of 50 mM Tris, pH 8.5, 5 mM MgCl2, 50 mM NaCl with 0.01% Tween20 and 1 mM DTT added right before the assay. 2.5 μL of compound solution in the assay buffer with 4% DMSO and 5 μL of PRMT5/MRP50 complex/SAM mixture solution in the assay buffer which was pre-incubated for 30 minutes were added into a white low volume 384 well microtiter plate. This mixture solution was incubated for 15 minutes with gentle shaking at room temperature. Methyl transfer reaction was initiated by adding 2.5 μL of Biotin-H4 (1-21) peptide substrate solution in the assay buffer. Final concentrations of PRMT5/MEP50, SAM, Biotin-H4 peptide substrate, and DMSO were 25 nM, 10 μM, 30 nM, and 1%, respectively. The reaction was allowed to perform for 120 minutes in dark with gentle shaking at room temperature after which 5 μL of Anti-H4R3-Me AlphaLISA acceptor beads in detection buffer from the manufacturer was added into the reaction mixture followed by incubation for 60 minutes. 10 μL of Streptavidin labeled AlphaLISA donor beads in detection buffer was added into the mixture followed by 30 minute incubation. Final acceptor and donor beads concentrations were 10 μg/mL. Plates were read on an Envision multimode plate reader from PerkinElmer (Waltham Mass., USA) with an excitation wavelength of 680 nm and emission wavelength of 615 nm. IC50 values of inhibitors were obtained by fitting the fluorescence intensity vs inhibitor concentrations in a sigmoidal dose-response curve (variable slopes, four parameters) using Prism 7 (La Jolla, Calif.).

[2] = system: Pancreatic Carcinoma MIA PaCa-2 cell; test: Cell proliferation inhibition, MIA PaCa-2 (CellTiter-Glo); assay type: cell-based; settings: Homo sapiens, MIA PaCa-2, incubated for 12 days (read after 8 or 12 days), read-out: IC50 (μM) MIA PaCa2
Text: (§1) Materials and Cell Lines: Z-138, U251, and MIA PaCa2 cells were purchased from ATCC (American Type Culture Collection, Manassas, Va.) and Chinese Academy of Science (Shanghai, China). Iscove's Modified Dulbecco's Medium (IMDM), Dulbecco's Modified Eagle Medium (DMEM), penicillin-streptomycin, heat inactivated fetal bovine serum (FBS), and horse serum was purchased from ThermoFisher, Waltham, Mass., USA. Corning 96- and 384-well cell culture plates were purchased from ThermoFisher, Waltham, Mass., USA. Cell-Titer Glo® was purchased from Promega Corporation, Madison, Wis., USA.
In order to evaluate the inhibitory ability of compounds synthesized on the proliferation of the Pancreatic Carcinoma MIA PaCa-2 cell, exponentially growing cells were seeded in the culture media of DMEM with 10% FBS, 2.5% horse serum, 1 mM of Sodium Pyruvate and 1% penicillin-streptomycin at a concentration of 2500 cells/ml in a 384-well plate with 20 ul per well and incubated overnight at 37° C., 5% CO2 incubator. Compounds were prepared as 10-point, 3-fold serial dilutions in DMSO, beginning at 6 mM. 1 μl of DMSO solutions from the compound stock plates were added to 99 ul of cell media (final top concentration of compound in the assay was 30 uM and the final concentration of DMSO was 0.5%). 20 μL of compound solutions in media were added to each well of MIA PaCa-2 cell plates. After adding compound solutions, assay plates were incubated for 12 days at 37° C., 5% CO2. During this incubation period, cell media was changed every 4 days. After removing old media from cell plates, 40 ul of media with testing compounds dissolved, which were prepared by adding 1 ul of compound DMSO serial solutions to 199 ul of cell media, were added to the assay plates with the same layout as they were initially prepared. After 8 or 12 days, cell viability was measured using the CellTiter-Glo assay kit from Promega (Madison, Wis., USA) by quantitating the ATP present in the cell cultures. 20 μL of CellTiter-Glo reagent was added to each well of the cell plates. Luminescence was read after 10 minute of incubation with the Envision multiple plate reader from PerkinElmer (Waltham, Mass., USA). The concentrations of compounds inhibiting cell viability by 50% (IC50 values) were determined using a sigmoidal dose-response model (variable slopes, four parameters) in Prism 7 (La Jolla, Calif., USA).

[3] = system: Mantle Cell Lymphoma Z-138 cell; test: Cell proliferation inhibition, Z-138 (CCK8); assay type: cell-based; settings: Z-138, incubated 4 days
Text: as §1
In order to evaluate the inhibitory ability of compounds synthesized on the proliferation of the Mantle Cell Lymphoma Z-138 cell, exponentially growing cells were seeded in the media of IMDM with 10% horse serum and 1% penicillin-streptomycin at a concentration of 30000 cells/ml in a 96-well plate with 100 ul per well and incubated overnight at 37° C., 5% CO2 incubator. Compounds were prepared as 10-point, 3-fold serial dilutions in DMSO, beginning at 6 mM. 1 μl of DMSO solutions from the compound stock plates were added to 99 ul of cell culture media (final top concentration of compound in the assay was 30 uM and the final concentration of DMSO was 0.5%). 100 μL of compound solutions in media were added to each well of Z-138 cell plates. After adding compound solutions, assay plates were incubated for 4 days at 37° C., 5% CO2. Cell viability was measured using the Cell Counting Kit-8 (CCK8) obtained from the Beyotime Biotehnology, Shanghai, China. 20 ul of CCK8 reagent was added to each well of the Z-138 assay plate which was incubated at 37° C. for 2 hours. O.D. at 450 nm was read with the FlexStation 3 microplate reader (Molecular Devices, Sunnyvale, Calif. 94089 USA). The concentrations of compounds inhibiting cell viability by 50% (IC50 values) were determined using a sigmoidal dose-response model (variable slopes, four parameters) in Prism 7 (La Jolla, Calif.).

Glioblastoma U-251 cell = test: Cell proliferation inhibition, U-251 (CellTiter-Glo); assay type: cell-based; settings: Homo sapiens, U-251, incubated for 12 days (read after 8 or 12 days)
Text: as §1
In order to evaluate the inhibitory ability of compounds synthesized on the proliferation of the Glioblastoma U-251 cell, exponentially growing cells were seeded in the cell culture media of DMEM with 10% FBS and 1% penicillin-streptomycin at a concentration of 10000 cells/ml in a 384-well plate with 20 ul per well and incubated overnight at 37° C., 5% CO2 incubator. Compounds were prepared as 10-point, 3-fold serial dilutions in DMSO, beginning at 6 mM. 1 μl of DMSO solutions from the compound stock plates were added to 99 ul of cell culture media (final top concentration of compound in the assay was 30 uM and the final concentration of DMSO was 0.5%). 20 μL of compound solutions in media were added to each well of U-251 cell plates. After adding compound solutions, assay plates were incubated for 12 days at 37° C., 5% CO2. During this incubation period, cell culture media with freshly dissolved testing compounds was changed every 4 days. After removing old media from cell plates, 40 ul of media with testing compounds dissolved, which were prepared by adding 1 ul of compound DMSO serial solutions to 199 ul of cell media, were added to the assay plates with the same layout as they were initially prepared. After 8 or 12 days, cell viability was measured using the CellTiter-Glo assay kit from Promega (Madison, Wis., USA) by quantitating the ATP present in the cell cultures. 20 μL of CellTiter-Glo reagent was added to each well of the cell plates. Luminescence was read after 10 minute of incubation with the Envision multiple plate reader from PerkinElmer (Waltham, Mass., USA). The concentrations of compounds inhibiting cell viability by 50% (IC50 values) were determined using a sigmoidal dose-response model (variable slopes, four parameters) in Prism 7 (La Jolla, Calif., USA).

pIC50 [1]	IC50 [2]	IC50 ([3]; Homo sapiens, Z-138, 96 h)	IC50 (Glioblastoma U-251 cell)	IC50 ([3]; listed as Ref 1 (EPZ-015666a))	SMILES
7.24	0.024 µM	0.041 µM			CC(=O)N1CCC(Nc2cc(F)c3c(c2)C(=O)N(C[C@H](O)CN2CCc4ccccc4C2)CCO3)CC1 [Compound 2a, (R)-7-((1-acetylpiperidin-4-yl)amino)-4-(3-(3,4-dihydroisoquinolin-2(1H)-yl)-2-hydroxypropyl)-9-fluoro-3,4-dihydrobenzo[f][1,4]oxazepin-5(2H)-one]
7.92	0.66 µM	0.13 µM	0.48 µM		Cn1cc(Nc2ccc3c(c2)C(=O)N(C[C@H](O)CN2CCc4ccccc4C2)CC3)cn1 [Compound 12a, (R)-2-(3-(3,4-dihydroisoquinolin-2(1H)-yl)-2-hydroxypropyl)-7-((1-methyl-1H-pyrazol-4-yl)amino)-3,4-dihydroisoquinolin-1(2H)-one]
8.31	0.68 µM	0.029 µM	0.5 µM		O=C1c2cc(Nc3ccnnc3)ccc2CCN1C[C@H](O)CN1CCc2ccccc2C1 [Compound 28a, (R)-2-(3-(3,4-dihydroisoquinolin-2(1H)-yl)-2-hydroxypropyl)-7-(pyridazin-4-ylamino)-3,4-dihydroisoquinolin-1(2H)-one]
8.08	0.4 µM	0.073 µM	0.14 µM		Cn1cc(Nc2ccc3c(c2)C(=O)N(C[C@H](O)CN2CCc4ccccc4C2)CCO3)cn1 [Compound 29a, (R)-4-(3-(3,4-dihydroisoquinolin-2(1H)-yl)-2-hydroxypropyl)-7-((1-methyl-1H-pyrazol-4-yl)amino)-3,4-dihydrobenzo[f][1,4]oxazepin-5(2H)-one]
8.34	0.23 µM	0.018 µM	0.18 µM		O=C1c2cc(Nc3ccnnc3)ccc2OCCN1C[C@H](O)CN1CCc2ccccc2C1 [Compound 30a, (R)-4-(3-(3,4-dihydroisoquinolin-2(1H)-yl)-2-hydroxypropyl)-7-(pyridazin-4-ylamino)-3,4-dihydrobenzo[f][1,4]oxazepin-5(2H)-one]
6.97	0.83 µM	0.137 µM	5.8 µM		CC(=O)N1CCC(Nc2ccc3c(c2)C(=O)N(C[C@@H](O)CN2CCc4ccccc4C2)CCO3)CC1 [Compound 52b]
6.86					CC(=O)N1CC2(CC(Nc3ccc4c(c3)C(=O)N(CC(O)CN3CCc5ccccc5C3)CCO4)C2)C1 (centres unmarked) [Compound 54, 7-((2-acetyl-2-azaspiro[3.3]heptan-6-yl)amino)-4-(3-(3,4-dihydroisoquinolin-2(1H)-yl)-2-hydroxypropyl)-3,4-dihydrobenzo[f][1,4]oxazepin-5(2H)-one]
5.96					CC(=O)N1CC2C(C1)C2Nc1ccc2c(c1)C(=O)N(CC(O)CN1CCc3ccccc3C1)CCO2 (centres unmarked) [Compound 56, 7-((3-acetyl-3-azabicyclo[3.1.0]hexan-6-yl)amino)-4-(3-(3,4-dihydroisoquinolin-2(1H)-yl)-2-hydroxypropyl)-3,4-dihydrobenzo[f][1,4]oxazepin-5(2H)-one]
7.03					CC(=O)N1CCC(Nc2ccc3c(c2)C(=O)N(C[C@H](O)CN2CCc4ccccc4C2)C2CC3C2)CC1 [Compound 57a, (R)-8-((1-acetylpiperidin-4-yl)amino)-2-(3-(3,4-dihydroisoquinolin-2(1H)-yl)-2-hydroxypropyl)-2,3,4,5-tetrahydro-1H-3,5-methanobenzo[c]azepin-1-one]
6.68					CC(=O)N1CCC(Nc2ccc3c(c2)C(=O)N(C[C@@H](O)CN2CCc4ccccc4C2)C2CC3C2)CC1 [Compound 57b, (S)-8-((1-acetylpiperidin-4-yl)amino)-2-(3-(3,4-dihydroisoquinolin-2(1H)-yl)-2-hydroxypropyl)-2,3,4,5-tetrahydro-1H-3,5-methanobenzo[c]azepin-1-one]
	2 µM	0.11 µM	1.2 µM	0.16 µM	O=C(NC[C@H](O)CN1CCc2ccccc2C1)c1cc(NC2COC2)ncn1 [Compound C1, reference compound]
	12.1 µM	9.1 µM	28.3 µM		O=C(NC[C@@H](O)CN1CCc2ccccc2C1)c1cc(NC2COC2)ncn1 [Compound C2, reference compound]

SMILES	pIC50 [1]	IC50 [2]	IC50 ([3]; Homo sapiens, Z-138, 96 h)	IC50 (Glioblastoma U-251 cell)	IC50 ([3]; listed as Ref 1 (EPZ-015666a))
CC(=O)N1C2CCC1CC(Nc1ccc3c(c1)C(=O)N(CC(O)CN1CCc4ccccc4C1)CCO3)C2 (centres unmarked) [Compound 55, 7-((8-acetyl-8-azabicyclo[3.2.1]octan-3-yl)amino)-4-(3-(3,4-dihydroisoquinolin-2(1H)-yl)-2-hydroxypropyl)-3,4-dihydrobenzo[f][1,4]oxazepin-5(2H)-one]	6.71				
